From patent US20220305090A1, “HAIR GROWING AGENT AND FOOD OR BEVERAGE PRODUCT COMPRISING SAME” (NITTA GELATIN INC., priority 2019, published 2022)

Tested on: human normal hair papilla cells HFDPC-C
Assay: Cell growth test on hair papilla cells (neutral red method, living cell number vs purified water control)
Assay type: cell-based
Conditions: for Hair papilla cell growth promoting action (in words): conclusion from Tables 1, 2 and 4; for Growth rate control = 100: 72 hours culture
Method: First, human normal hair papilla cells HFDPC-C (manufactured by Takara Bio Inc.) were obtained, and the hair papilla cells were then seeded at 0.2×10^4/dish in each well of a 96-well plate for cell culture (manufactured by Corning Inc.). Further, 200 μL of a basal medium (trade name: “Follicle Dermal Papilla Cell Basal Medium”, manufactured by Takara Bio Inc.) containing a growth factor accompanying the obtained hair papilla cells was supplied to each well, and the hair papilla cells were precultured in each well at 37° C. for 24 hours.
Next, the hair papilla cells were confirmed to be subconfluent, and the basal medium in each well was then replaced by 200 μL of another basal medium (trade name: “Follicle Dermal Papilla Cell Basal Medium”, manufactured by Takara Bio Inc.) free of the growth factor described above. In this way, hair papilla cells to be used for determining whether or not addition of the above-described samples promote cell growth were prepared.
To the hair papilla cells prepared as described above, amino acids, combinations of amino acids, peptides and collagen peptide mixtures which are the samples described above were added at final concentrations shown in Tables 1 and 2, and the hair papilla cells were cultured in each well at 37° C. for 72 hours. Here, to one of the wells containing the hair papilla cells prepared as described above, 20 μL, of purified water was added, and as with other hair papilla cells, culturing was performed at 37° C. for 72 hours to prepare a control test sample (control). Thereafter, for each of the hair papilla cells in the wells containing purified water or the samples, the number of living cells (living cell number) was counted by a neutral red method. Here, the “neutral red method” is a method in which neutral red is added at a final concentration of 150 μg/mL into a well where cells are cultured, the cells are cultured for 20 minutes, and washed with PBS (phosphate buffer physiological saline), 200 μL of a 50 mass % ethanol solution containing 1 mass % acetic acid is added into the well as an extraction liquid, the mixture is stirred, and the absorbance of the well containing the neutral red is measured at a wavelength of 540 nm to measure the number of living cells in the well.
The number of living cells of hair papilla cells in the well containing the sample with respect to the number of living cells of hair pallia cells in the well containing purified water (control test sample) was determined as a cell growth rate (%) to evaluate the hair papilla cell growth promoting action in the sample. Further, the cell growth rate (%) was subjected to statistical processing to evaluate significance of the hair papilla cell growth promoting action in the sample. […] Thereafter, the Student's t-test (t-test) was conducted to evaluate significance. […] In Tables 1 and 2, samples with “++” were determined to have a significance in the hair papilla cell growth promoting action. In samples with “+”, the cell growth rate (%) exceeded 100.

[1] = final concentration 0.05 mM, Table 1
[2] = final concentration 0.5 mM, Table 1
[3] = final concentration 5 mM, Table 1
[4] = final concentration 0.05 mM, Table 4 (control test)
[5] = final concentration 0.5 mM, Table 4 (control test)
[6] = final concentration 5 mM, Table 4 (control test)

Row | Compound | Hair papilla cell growth promoting action (in words) | Growth rate control = 100 (final concentration 0.05 mM) | Assessment [1] | Growth rate control = 100 (final concentration 0.5 mM) | Assessment [2] | Growth rate control = 100 (final concentration 5 mM) | Assessment [3] | Assessment [4] | Assessment [5] | Assessment [6]
1 | proline-alanine [PA] | had a hair papilla cell growth promoting action | 105 ± 2% | + (In samples with “+”, the cell growth rate (%) exceeded 100) | 111 ± 1% | + (In samples with “+”, the cell growth rate (%) exceeded 100) | 107 ± 5% | + (In samples with “+”, the cell growth rate (%) exceeded 100) |  |  | 
2 | alanine-hydroxyproline-glycine [AOG] | had a hair papilla cell growth promoting action | 127 ± 5% | ++ | 126 ± 2% | ++ | 119 ± 2% | ++ |  |  | 
3 | O=C(O)[C@@H]1CCCN1 [Pro, proline, reference compound] | poor hair papilla cell growth promoting action | 91 ± 4% |  | 93 ± 5% |  | 96 ± 1% |  | − | − | −
4 | phenylalanine-hydroxyproline [FO] | had a hair papilla cell growth promoting action | 104 ± 4% | + (In samples with “+”, the cell growth rate (%) exceeded 100) | 106 ± 2% | + (In samples with “+”, the cell growth rate (%) exceeded 100) | 104 ± 1% | ++ |  |  | 
5 | NCC(=O)O.O=C(O)[C@@H]1CCCN1 [PG, proline-glycine] | had a hair papilla cell growth promoting action | 120 ± 5% | ++ | 120 ± 1% | ++ | 120 ± 5% | ++ |  |  | 
6 | C[C@H](N)C(=O)O [Ala, alanine, reference compound] | poor hair papilla cell growth promoting action | 94 ± 1% |  | 100 ± 8% |  | 95 ± 1% |  | − | − | −
7 | serine-hydroxyproline-glycine [SOG] | had a hair papilla cell growth promoting action | 113 ± 10% | + (In samples with “+”, the cell growth rate (%) exceeded 100) | 116 ± 3% | ++ | 109 ± 2% | + (In samples with “+”, the cell growth rate (%) exceeded 100) |  |  | 
8 | proline-alanine-glycine [PAG] | had a hair papilla cell growth promoting action | 110 ± 4% | + (In samples with “+”, the cell growth rate (%) exceeded 100) | 113 ± 1% | ++ | 115 ± 4% | ++ |  |  | 
9 | O=C(O)[C@@H]1C[C@@H](O)CN1 [O, hydroxyproline] | had a hair papilla cell growth promoting action | 114 ± 1% | ++ | 114 ± 3% | ++ | 110 ± 5% | ++ |  |  | 
